# Reference: PubChem BioAssay (NCI)
#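 48-hour exposure; five concentrations; linearly interpolated endpoints. TGI: total growth inhibition.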
# What was measured:
# Test in all cases: NCI-60 cell line screen, 48 h
# [1] = tested on: HCT-116 colon
# [2] = tested on: OVCAR-4 ovarian
# [3] = tested on: EKVX NSCLC
# [4] = tested on: A549 NSCLC
# [5] = tested on: NCI/ADR-RES ovarian
# [6] = tested on: OVCAR-5 ovarian
# [7] = tested on: SF-268 CNS
# [8] = tested on: U251 CNS
# [9] = tested on: ACHN renal
# [10] = tested on: SK-MEL-2 melanoma
# [11] = tested on: UACC-257 melanoma
# [12] = tested on: UACC-62 melanoma
# [13] = tested on: HT29 colon
# [14] = tested on: NCI-H23 lung
# [15] = tested on: RPMI-8226 leukemia
# [16] = tested on: SF-539 CNS
# [17] = tested on: HS 578T breast
# [18] = tested on: UO-31 renal
# [19] = tested on: M14 melanoma
# [20] = tested on: SR leukemia
# [21] = tested on: T-47D breast
# [22] = tested on: TK-10 renal
# [23] = tested on: MDA-MB-231 breast
# [24] = tested on: HCT-15 colon
# [25] = tested on: NCI-H522 lung
# [26] = tested on: CCRF-CEM leukemia
# [27] = tested on: SNB-75 CNS
# [28] = tested on: COLO 205 colon
# [29] = tested on: BT-549 breast
# [30] = tested on: K-562 leukemia
# [31] = tested on: DU-145 prostate
# [32] = tested on: MCF7 breast
# [33] = tested on: HOP-62 NSCLC
# [34] = tested on: IGROV1 ovarian
# [35] = tested on: NCI-H226 lung
# [36] = tested on: NCI-H460 lung
# [37] = tested on: HCC-2998 colon
# [38] = tested on: MDA-N
# [39] = tested on: SK-OV-3 ovarian
# [40] = tested on: HL-60(TB) leukemia
# [41] = tested on: LOX IMVI melanoma
# [42] = tested on: SNB-19 CNS
# [43] = tested on: SK-MEL-28 melanoma
# [44] = tested on: A498 renal
# [45] = tested on: SN12C renal
# [46] = tested on: MDA-MB-435
# [47] = tested on: MOLT-4 leukemia
# [48] = tested on: 786-0 renal
# [49] = tested on: OVCAR-3 ovarian
# [50] = tested on: KM12 colon
# [51] = tested on: SW-620 colon
# [52] = tested on: PC-3 prostate
# [53] = tested on: SF-295 CNS
# [54] = tested on: CAKI-1 renal
# [55] = tested on: SK-MEL-5 melanoma
# [56] = tested on: HOP-92 NSCLC
# [57] = tested on: RXF 393 renal
# [58] = tested on: MALME-3M melanoma
# [59] = tested on: OVCAR-8 ovarian
compound,measurement,setting,value
Cc1cc(C)n(-c2nc3ccccc3c(=O)[nH]2)n1,TGI,[1],21.6 µM
same,TGI,[2],> 100 µM
same,TGI,[3],28.9 µM
same,TGI,[4],> 35.5 µM
same,TGI,[5],13.9 µM
same,TGI,[6],> 100 µM
same,TGI,[7],> 47.1 µM
same,TGI,[8],> 45.5 µM
same,TGI,[9],21.8 µM
same,TGI,[10],32.2 µM
same,TGI,[11],> 100 µM
same,TGI,[12],21.3 µM
same,TGI,[13],> 100 µM
same,TGI,[14],32.8 µM
same,TGI,[15],> 41.9 µM
same,TGI,[16],> 75 µM
same,TGI,[17],> 91.5 µM
same,TGI,[18],36.8 µM
same,TGI,[19],> 100 µM
same,TGI,[20],> 29.5 µM
same,TGI,[21],48.8 µM
same,TGI,[22],> 100 µM
same,TGI,[23],25.3 µM
same,TGI,[24],23.9 µM
same,TGI,[25],18.8 µM
same,TGI,[26],> 100 µM
same,TGI,[27],> 71.6 µM
same,TGI,[28],17.1 µM
same,TGI,[29],> 100 µM
same,TGI,[30],> 100 µM
same,TGI,[31],21.3 µM
same,TGI,[32],> 100 µM
same,TGI,[33],> 43.7 µM
same,TGI,[34],12.4 µM
same,TGI,[35],> 66.8 µM
same,TGI,[36],> 49.3 µM
same,TGI,[37],31.3 µM
same,TGI,[38],> 76.9 µM
same,TGI,[39],> 100 µM
same,TGI,[40],> 33.7 µM
same,TGI,[41],13.7 µM
same,TGI,[42],> 72.1 µM
same,TGI,[43],> 41.2 µM
same,TGI,[44],> 63.8 µM
same,TGI,[45],> 100 µM
same,TGI,[46],26.9 µM
same,TGI,[47],50.5 µM
same,TGI,[48],19.6 µM
same,TGI,[49],> 45 µM
same,TGI,[50],23.1 µM
same,TGI,[51],38.9 µM
same,TGI,[52],25.8 µM
same,TGI,[53],> 50.7 µM
same,TGI,[54],37.5 µM
same,TGI,[55],17.8 µM
same,TGI,[56],> 68.3 µM
O=S(=O)(Cc1nc2ccccc2s1)c1nc2ccccc2s1,TGI,[1],27 µM
same,TGI,[2],31.4 µM
same,TGI,[3],46.2 µM
same,TGI,[4],95 µM
same,TGI,[5],> 100 µM
same,TGI,[57],59.6 µM
same,TGI,[6],39.4 µM
same,TGI,[7],42.2 µM
same,TGI,[8],34.9 µM
same,TGI,[9],33 µM
same,TGI,[10],37.7 µM
same,TGI,[11],41.8 µM
same,TGI,[12],44.2 µM
same,TGI,[13],37.5 µM
same,TGI,[14],38.9 µM
same,TGI,[15],37 µM
same,TGI,[16],43.7 µM
same,TGI,[17],79.3 µM
same,TGI,[18],31.4 µM
same,TGI,[19],30.5 µM
same,TGI,[20],21 µM
same,TGI,[21],53.6 µM
same,TGI,[22],35.7 µM
same,TGI,[23],34 µM
same,TGI,[24],32 µM
same,TGI,[25],33.9 µM
same,TGI,[26],23.7 µM
same,TGI,[27],41.3 µM
same,TGI,[28],33.4 µM
same,TGI,[29],34.1 µM
same,TGI,[30],32.2 µM
same,TGI,[31],32 µM
same,TGI,[32],37.1 µM
same,TGI,[33],> 100 µM
same,TGI,[34],39.6 µM
same,TGI,[35],65.6 µM
same,TGI,[36],> 100 µM
same,TGI,[37],30.2 µM
same,TGI,[38],39.5 µM
same,TGI,[39],> 100 µM
same,TGI,[40],24.2 µM
same,TGI,[41],25.6 µM
same,TGI,[42],44 µM
same,TGI,[58],24.9 µM
same,TGI,[43],30.5 µM
same,TGI,[59],55.7 µM
same,TGI,[44],38.6 µM
same,TGI,[45],35.2 µM
same,TGI,[46],34.4 µM
same,TGI,[47],39.9 µM
same,TGI,[48],34.1 µM
same,TGI,[49],28.1 µM
same,TGI,[50],35.4 µM
same,TGI,[51],34.6 µM
same,TGI,[52],32.6 µM
same,TGI,[53],64.2 µM
same,TGI,[55],25.6 µM
same,TGI,[56],28.1 µM
COC(O)C(=O)c1c2c(cc3c1CCC3)CCCC2 (centres undefined),TGI,[1],4.6 µM
same,TGI,[2],17.5 µM
same,TGI,[3],31.1 µM
same,TGI,[4],40.9 µM
same,TGI,[5],61.5 µM
same,TGI,[6],36.7 µM
same,TGI,[7],45.5 µM
same,TGI,[8],27.8 µM
same,TGI,[9],21 µM
same,TGI,[10],30.2 µM
same,TGI,[11],25.9 µM
same,TGI,[12],12.3 µM
same,TGI,[13],12.9 µM
same,TGI,[14],31.7 µM
same,TGI,[15],5.63 µM
same,TGI,[16],16.6 µM
same,TGI,[17],36.2 µM
same,TGI,[18],31.5 µM
same,TGI,[19],24.9 µM
same,TGI,[20],13.9 µM
same,TGI,[21],44.2 µM
same,TGI,[22],29.9 µM
same,TGI,[23],27.6 µM
same,TGI,[24],13.8 µM
same,TGI,[25],13.2 µM
same,TGI,[26],6.69 µM
same,TGI,[27],26 µM
same,TGI,[28],19.3 µM
same,TGI,[29],6.41 µM
same,TGI,[30],12.7 µM
same,TGI,[31],30.5 µM
same,TGI,[32],18 µM
same,TGI,[33],33.3 µM
same,TGI,[34],14 µM
same,TGI,[35],38 µM
same,TGI,[36],19.7 µM
same,TGI,[37],4.28 µM
same,TGI,[38],30.4 µM
same,TGI,[39],24.6 µM
same,TGI,[40],4.31 µM
same,TGI,[41],4.95 µM
same,TGI,[42],32.8 µM
same,TGI,[58],27.8 µM
same,TGI,[43],26.4 µM
same,TGI,[59],25.4 µM
same,TGI,[44],18 µM
same,TGI,[45],19.5 µM
same,TGI,[46],36.7 µM
same,TGI,[47],14.2 µM
same,TGI,[48],27.8 µM
same,TGI,[49],14.5 µM
same,TGI,[50],34.1 µM
same,TGI,[51],12.3 µM
same,TGI,[52],11 µM
same,TGI,[53],26 µM
same,TGI,[54],28.3 µM
same,TGI,[55],9.47 µM
O=C(Cc1nc2cccnc2nc1/C=C(\O)c1ccccc1)c1ccccc1,TGI,[2],> 100 µM
same,TGI,[4],> 100 µM
same,TGI,[5],> 100 µM
same,TGI,[6],> 100 µM
same,TGI,[7],46 µM
same,TGI,[8],> 100 µM
same,TGI,[9],> 100 µM
same,TGI,[10],65.4 µM
same,TGI,[11],> 100 µM
same,TGI,[12],18.6 µM
same,TGI,[13],> 100 µM
same,TGI,[14],> 100 µM
same,TGI,[15],29 µM
same,TGI,[16],> 100 µM
same,TGI,[17],> 100 µM
same,TGI,[18],79.6 µM
same,TGI,[19],> 100 µM
same,TGI,[20],> 100 µM
same,TGI,[21],> 100 µM
same,TGI,[22],> 100 µM
same,TGI,[23],> 100 µM
same,TGI,[24],> 100 µM
same,TGI,[25],35.6 µM
same,TGI,[26],29.9 µM
same,TGI,[27],96.4 µM
same,TGI,[28],25.1 µM
same,TGI,[29],38.4 µM
same,TGI,[30],> 100 µM
same,TGI,[31],> 100 µM
same,TGI,[32],27.6 µM
same,TGI,[33],58.4 µM
same,TGI,[34],> 100 µM
same,TGI,[36],22.7 µM
same,TGI,[38],> 100 µM
same,TGI,[39],> 100 µM
same,TGI,[40],66.6 µM
same,TGI,[41],87 µM
same,TGI,[42],> 100 µM
same,TGI,[58],> 100 µM
same,TGI,[43],> 100 µM
same,TGI,[59],> 100 µM
same,TGI,[44],74 µM
same,TGI,[45],59.1 µM
same,TGI,[46],82 µM
same,TGI,[47],> 100 µM
same,TGI,[49],13.3 µM
same,TGI,[50],> 100 µM
same,TGI,[51],> 100 µM
same,TGI,[52],> 100 µM
same,TGI,[53],82.1 µM
same,TGI,[54],30.5 µM
same,TGI,[55],38 µM
same,TGI,[56],59 µM
O=C1/C(=C/c2ccc(Cl)cc2)CCC/C1=C\c1ccc(O)c(CN2CCCCC2)c1,TGI,[1],33.5 µM
same,TGI,[2],44.2 µM
same,TGI,[3],40.7 µM
same,TGI,[4],> 100 µM
same,TGI,[5],51.8 µM
same,TGI,[6],50.4 µM
same,TGI,[8],57.1 µM
same,TGI,[9],30.7 µM
same,TGI,[10],> 100 µM
same,TGI,[11],90.7 µM
same,TGI,[12],36 µM
same,TGI,[13],17.5 µM
same,TGI,[14],49.1 µM
same,TGI,[16],58.3 µM
same,TGI,[17],46 µM
same,TGI,[18],31.5 µM
same,TGI,[19],49.3 µM
same,TGI,[20],9.67 µM
same,TGI,[21],63.5 µM
same,TGI,[22],79.2 µM
same,TGI,[23],63.6 µM
same,TGI,[24],27.2 µM
same,TGI,[26],35 µM
same,TGI,[27],> 100 µM
same,TGI,[28],59.3 µM
same,TGI,[29],31 µM
same,TGI,[30],66.1 µM
same,TGI,[31],36.9 µM
same,TGI,[32],> 100 µM
same,TGI,[33],> 100 µM
same,TGI,[34],44 µM
same,TGI,[35],35.5 µM
same,TGI,[36],94.3 µM
same,TGI,[37],38.7 µM
same,TGI,[38],> 100 µM
same,TGI,[39],89.5 µM
same,TGI,[40],7.25 µM
same,TGI,[41],42.5 µM
same,TGI,[42],> 100 µM
same,TGI,[58],59.1 µM
same,TGI,[43],62.6 µM
same,TGI,[59],48.8 µM
same,TGI,[44],30 µM
same,TGI,[45],87.8 µM
same,TGI,[46],> 100 µM
same,TGI,[47],69.4 µM
same,TGI,[48],34.5 µM
same,TGI,[49],87.5 µM
same,TGI,[50],16.7 µM
same,TGI,[51],> 100 µM
same,TGI,[52],> 100 µM
same,TGI,[53],43.3 µM
same,TGI,[54],40.2 µM
same,TGI,[55],35.3 µM
same,TGI,[56],42.1 µM
